This is an account of results in the NIST ThermoML archive (doi:10.1021/acs.jced.7b00601).

For data set [1] the following is noted: Crystal; DTA.
Data set [2] is described as follows: Molar enthalpy of transition or fusion. As to conditions: Crystal; DSC.

Structures are written as SMILES. ± gives the expanded uncertainty stated by the source.

As to `COc1c(N2CCNC(C)C2)c(F)cc2c(=O)c(C(=O)O)cn(C3CC3)c12` (configuration not stated) [gatifloxacin], the Normal melting temperature in data set [1] came out at 162.00 ± 2.9 °C. In addition, in data set [2], the “Molar enthalpy of transition or fusion” value stood at 8.35 ± 0.232 kcal/mol.
